Patent publication US12643893B2, “Heteroaryl-pyridinium compound and redox flow battery comprising the same” (Korea Advanced Institute of Science and Technology, priority 2021, dated 2026)
Like-named read-outs stand apart in the source and are kept apart here.

Legend:
[1] = Cyclic voltammetry (CV) in three-electrode cells; type: physicochemical; details: for Formal potential (E^o′): CV, 4 mM in 0.1 M TBATFSI/MeCN
Method: All electrochemical examinations were carried out using a Biologic VMP3 electrochemical workstation in an Ar-filled glove box (MOTek, negligible O2 and H2O, tested by the ketyl solution).
Cyclic voltammetry (CV) was conducted in three-electrode cells comprised of glassy carbon (GC; diameter (d)=3 mm) as the working electrode (WE), a platinum wire as the counter electrode (CE), and a leak-free Ag/AgCl as the reference electrode (RE). The GC electrodes were polished using alumina slurry before testing (ALS Co., Ltd).
After CV analysis, ferrocene (Fc, ferrocene, 98%, Sigma-Aldrich) was added to the cell to measure its redox potential, and the measured sample potential was converted to the Fc/Fc^+.

[2] = Radical stability, UV-Vis time-dependent concentration decay; type: physicochemical; details: for time-dependent concentration decay of the radical: in 0.5 M TBATFSI/MeCN
Source text: FIG. 10—Radical stability of TMAP-BTP^·+ and BTP^·. (a-b) UV-Vis spectra of (a) TMAP-BTP^·+ and (b) BTP^· in 0.5 M TBATFSI/MeCN. (c-d) Calculated time-dependent concentration decay of (c) TMAP-BTP^·+ (0.22%/day) and (d) BTP (0.63%/day). Better stability of TMAP-BTP^·+ than BTP^· is presumably attributed to the cationic TMAP groups, which repel the redox molecules and prevent chemical reactions.

[3] = expected from the permeability
[4] = Rotating disk electrode LSV, diffusion coefficient (Levich equation); type: physicochemical; details: 0.1 M TBATFSI/MeCN
Method: To measure diffusion coefficient (D), rotating disk electrode (RDE; ALS Co., Ltd) measurements were conducted with the same three-electrode cells. […] Limited mass-transport provides a current plateau (iL) of redox processes, which is linearly proportional to the square root of the rotating rates (ω^1/2). The diffusion coefficient (D) was calculated by plotting IL as a function of ω^1/2 and through the Levich equation (equation S1). iL=0.620nFAD^2/3ω^1/2η^−1/6Co (equation S1)
where IL is the limiting current (A cm^−2), n is the number of electrons transferred during the redox reaction, F is the Faraday's constant (96485 C mol^−1), A is the area of the electrode (0.0707 cm^2), D is the diffusion coefficient (cm^2 […]), ω is the angular rotation rate (rad s^−1), η is the kinematic viscosity (0.00442 cm^2 s^−1, referred to 0.1 M TBAPF6/MeCN), and Co is the concentration of the sample chemical.

[5] = Electron-transfer rate from CV curves (Nicholson method); type: physicochemical; details: 0.1 M TBATFSI/MeCN
Method: The electron-transfer rate (k^0) was calculated from CV curves and using the Nicholson method(equation S2).
where k^o is the electron-transfer constant (cm/s), D is the diffusion coefficient estimated from the above RDE studies, R is the gas constant (8.314 J K^−1 mol^−1), T is the temperature (298 K), v is the scan rate of the CVs (mV s^−1).
The Ψ value was obtained by Kingler and Kochi relation (equation S3).
where ΔEp is the peak-to-peak potential for the corresponding reduction or oxidation event.

Row | Structure (SMILES) | cyclability in the CV profile ([1]; 100 CV cycles, FIGS. 6 and 7) | time-dependent concentration decay of the radical [2] | time required for 10% decay associated with the crossover [3] | time required for 10% decay associated with the crossover ([3]; listed as BTP^·) | Formal potential (E^o′) ([1]; first redox event (single event for BTMAP-Fc)) | peak-to-peak potential difference (ΔEp) ([1]; maintained for 100 CV cycles) | anodic-to-cathodic peak current ratio (Ipa/Ipc) ([1]; preserved during 100 CV cycles) | Formal potential (E^o′) ([1]; second redox event) | diffusion coefficient (D) [4] | electron-transfer constant (k^o) [5] | time the reduced form remained stable in the electrolyte solution ([2]; electrolyte solution) | time required for 10% decay associated with the crossover ([3]; listed as TMAP-BTP^·+)
1 | C[n+]1ccc(-c2nc3ccccc3s2)cc1 [BTP^+] | excellent cyclability | 0.63 %/day | 0.047 year | 0.0065 year |  |  |  |  |  |  |  | 
2 | C[N+](C)(C)CCC[n+]1ccc(-c2nc3ccccc3s2)cc1 [TMAP-BTP^2+] |  | 0.22 %/day | 0.37 year |  | −1.19 V vs. Fc/Fc^+ | 105 mV | close to unity | −1.87 V vs. Fc/Fc^+ | 1.91×10^−6 cm^2 s^−1 | ~0.1 cm/s | 4 days | 0.094 year
